Results reported in paper PMC6934184, “Selective DNA-PKcs inhibition extends the therapeutic index of localized radiotherapy and chemotherapy” (The Journal of Clinical Investigation, 2019).

Target: T1, MAPK12 (p38 gamma) (Homo sapiens, UniProt P53778)
T1 construct: purchased Thermo Fisher Scientific (Life Technologies) SelectScreen
Experiment: SelectScreen Z'LYTE
Type: biochemical
Summary of the method: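 NU5455 was profiled across the SelectScreen Broad panel of kinase activity and binding assays. Z'LYTE reactions such as CSF1R ran at apparent Km ATP, while the Adapta CAMK1 assay used ATP listed as 10. Values are given as percent.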

T1 sequence (P53778 whole entry): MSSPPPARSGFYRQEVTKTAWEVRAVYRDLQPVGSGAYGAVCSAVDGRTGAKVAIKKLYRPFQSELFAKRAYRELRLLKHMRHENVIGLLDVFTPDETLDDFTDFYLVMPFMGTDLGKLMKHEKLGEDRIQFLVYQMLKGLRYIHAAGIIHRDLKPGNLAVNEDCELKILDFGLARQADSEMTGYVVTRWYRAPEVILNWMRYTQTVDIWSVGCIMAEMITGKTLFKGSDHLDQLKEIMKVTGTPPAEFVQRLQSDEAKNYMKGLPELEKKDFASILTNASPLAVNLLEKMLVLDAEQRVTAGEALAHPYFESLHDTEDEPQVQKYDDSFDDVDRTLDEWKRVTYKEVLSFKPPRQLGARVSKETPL

CN(C(=O)CN1CCOCC1)c1ccc2sc3c(-c4cccc5c(=O)cc(N6CC7CCC(C6)O7)oc45)cccc3c2c1 [NU5455]
inhibition at 1 µM: -0.8%
